Earlier results on four molecules are cited in patent US20040167185A1, “Methods of treating conditions associated with an Edg-3 receptor” (priority 2003, published 2004).

Counter-ions that a name gives are not always drawn.

One series deals with Adrenergic β. Conditions: Kd of the radioligand; Wistar rat brain; historical value.
The target of series [1] is Serotonin 5-HT1, non-selective. Conditions: Kd of the radioligand; Wistar rat cerebral cortex; historical value.
In the next series the target is T1, Angiotensin AT2 (Homo sapiens, UniProt P50052).
T1 construct: expressed in transfected cells; host or cells: Hela cells
T1 sequence (P50052 1-363): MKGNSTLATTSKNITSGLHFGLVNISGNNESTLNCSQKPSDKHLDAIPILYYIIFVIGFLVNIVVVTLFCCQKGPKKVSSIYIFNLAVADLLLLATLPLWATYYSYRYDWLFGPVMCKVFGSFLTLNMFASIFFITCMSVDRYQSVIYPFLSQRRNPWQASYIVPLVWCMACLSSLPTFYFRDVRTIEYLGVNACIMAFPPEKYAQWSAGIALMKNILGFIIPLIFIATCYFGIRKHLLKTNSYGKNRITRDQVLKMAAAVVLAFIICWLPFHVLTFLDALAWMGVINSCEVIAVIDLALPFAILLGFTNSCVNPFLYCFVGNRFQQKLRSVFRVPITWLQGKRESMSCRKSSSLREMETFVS
As to conditions: Kd of the radioligand; Human recombinant Hela cells; historical value.

Series [2] addresses Adrenergic α1, non-selective.

In general, Kd refers to a measure of binding affinity in units of concentration. As to `CCCc1ccccc1OCC(O)CNC(C)C` (stereo not shown) [^3H Dihydroaplenolol, Dihydroaplenolol], the Kd on Adrenergic β was 0.5 nM. For `NCCc1c[nH]c2ccc(O)cc12` [^3H Serotonin (5-HT) Trifluoroacetate, Serotonin (5-HT) Trifluoroacetate], the equilibrium dissociation constant (Kd) in series [1] was 0.61 nM. Turning to CGP-42112A [^125I CGP-42112A], the dissociation constant (Kd) on Angiotensin AT2 was 0.012 nM.

With `COc1cc2nc(N3CCN(C(=O)c4ccco4)CC3)nc(N)c2cc1OC` [^3H Prazosin, Prazosin], the dissociation constant (Kd) in series [2] was 0.29 nM.
